# Measurements from patent EP3442594B1, “BLOCK COPOLYMER FOR […] RESISTANCE OF TUMOURS TO CHEMOTHERAPY, ITS POLYMER-DRUG CONJUGATE, PHARMACEUTICAL COMPOSITION CONTAINING THEM, METHOD OF PREPARATION AND USE THEREOF” (Ustav makromolekularni chemie AV CR, v.v.i., priority 2016, dated 2017).
# Values joined by “and” are separate entries in the source; they are usually repeats but may differ in a detail not shown here. Identical values can stand only once. Like-named read-outs stand apart in the source and are kept apart here.
# Experiments:
# NB3/DOX = assay: IC50 of drugs with/without block copolymer, AlamarBlue method; format: cell-based; conditions: cells pre-incubated 1 hour with/without block copolymer at 250 µg/mL
# Procedure: (§1) In in vitro experiments the cells were first incubated for 1 hour with/without a diblock or triblock copolymer at a concentration 250 µg/mL and thereto were added the above mentioned drugs in a concentration series. After 72 hours of incubation the metabolic activity of cells was determined using the AlamarBlue method and from it the IC50 of individual drugs. An experiment was performed with non-degradable diblock polymers PHPMA-PPO (Example 20) and triblock polymers (PHPMA)2-PPO (Example 21) as a control.
# NB4/DOX = assay: as above; format: cell-based; conditions: cells pre-incubated 1 hour with/without block copolymer at 250 µg/mL
# Procedure: as §1
# [1] = test system: 4T1 - mammary carcinoma cell line; assay: Cytostatic activity, 3H-thymidine incorporation; format: cell-based, murine; conditions: Mus musculus; 4T1, 72 hours
# Procedure: (§2) These were murine tumour cell lines (CT26 - colon carcinoma cell line, 4T1 - mammary carcinoma cell line, both originating from the BALB/c inbred strain of mice, followed by EL4.IL-2-line of T-cell lymphoma originating from the C57BL/6 inbred strain of mice) and FaDu - a human line of squamous cell carcinoma of the head and neck. […] The cell proliferation was then determined using the standard method of incorporating ^3H-thymidine which was added for the last 6 hours of culture. Subsequently, the cultures were processed using the Tomtec Mach III harvester and, after drying, the radioactivity of samples obtained was measured by the beta-scintillation counter Microbeta Trilux (Wallac) using a solid scintillant (MeltiLex; Perkin Elmer). […] The activity of conjugates was determined by 3H-thymidine incorporation after 72 hours of incubation of cells with various concentrations of drugs. The IC50 values are given in ng of doxorubicin/mL and were calculated as a mean of several independent determinations.
# [2] = test system: CT26 - colon carcinoma cell line; assay: Cytostatic activity, 3H-thymidine incorporation; format: cell-based, murine
# Procedure: as §2
# [3] = test system: EL4.IL-2-line of T-cell lymphoma; assay: Cytostatic activity, 3H-thymidine incorporation; format: cell-based, murine; conditions: Mus musculus, EL4.IL-2, 72 hours
# Procedure: as §2
# [4] = test system: FaDu - a human line of squamous cell carcinoma of the head and neck; assay: Cytostatic activity, 3H-thymidine incorporation; format: cell-based; conditions: 72 hours
# Procedure: as §2
# [5] = test system: murine T-cell lymphoma EL4; assay: In vivo antitumour effect in the treatment of EL4 lymphoma; parameters: species or system C57BL/6 mice
# Procedure: (§3) The in vivo antitumour effect of micellar diblock polymer conjugate of Example 28 carrying doxorubicin (DOX-DB) was studied on a model of murine T-cell lymphoma EL4 in the C57BL/6 inbred strains of mice. The conjugate was administered to mice intravenously (i.v.) in a single dose equivalent to 7.5 mg of doxorubicin/kg. The drug was injected 8 days after subcutaneous administration of 1 x 10^5 EL4 tumour cells, at a time when tumours are developed and the tumour bed size is about 6-8 mm in diameter. […] Further, the free doxorubicin (DOX) was used for treatment, injected at a total dose of 10 mg/kg, which, due to the different pharmacokinetics of a low molecular weight drug and the associated danger of high systemic toxicity, was injected in two partial intravenous doses on the 8th and 12th day after transplantation of tumour cells (each dose of 5 mg of doxorubicin).
# (§4) Days mean the death of animals after administration of tumour cells (1 x 10^5 cells EL4 s.c. on day 0), LTS ("long term survivor") means long-term surviving mice without evidence of tumour (at least until day 70 after administration of tumour cells). The last line contains information about the median survival in groups.
# [6] = test system: murine T-cell lymphoma EL4; format: in vivo
# Procedure: as §3, §4
# [7] = Release of docetaxel or its derivative from polymer conjugates in phosphate buffers (HPLC); format: physicochemical; conditions: pH 7.4 compared with pH 5.0, 37°C, conjugate 5 mg/mL
# Procedure: At predetermined time intervals 200 µL of incubation solution was collected and after the extraction of released drugs and derivatives thereof into chloroform their amounts were determined using an HPLC system (Shimadzu HPLC system equipped with a column with a reverse phase Chromolith Performance RP-18e (100 x 4.6 mm) and UV-VIS detector Shimadzu SPD-10AVvp (230 nm), eluent water-acetonitrile with gradient from 50 to 100 vol% of acetonitrile, flow rate of 0.5 mL x min^-1).
# [8] = read-out: IC50 after 72 hours of incubation
molecule,measurement,setting,value
"COc1cccc2c1C(=O)c1c(O)c3c(c(O)c1C2=O)C[C@@](O)(C(=O)CO)C[C@@H]3O[C@H]1C[C@H](N)[C@H](O)[C@H](C)O1 [DOX, doxorubicin]",IC50 after 72 hours of incubation,NB3/DOX,0.168 ± 0.005 µg/mL
same,IC50,NB3/DOX; [8],0.215 ± 0.004 µg/mL
same,IC50,NB4/DOX; [8],2.61 ± 0.17 µg/mL
same,IC50,[1],0.0143 µg/mL
same,IC50,"[2]; Mus musculus, CT26, 72 hours",0.0425 µg/mL
same,IC50,[3],0.0122 µg/mL
same,IC50,[4],4.8 ng/mL
same,complete cure,[5]; 2 x 5 mg DOX/kg i.v.,none
same,median survival,[5]; 2 x 5 mg DOX/kg i.v.,40.5 days
same,tumour growth in comparison to untreated controls,[5]; 2 x 5 mg DOX/kg i.v.,"the average tumour growth was slower than in the group of untreated mice, but showed a steady progression"
same,Survival: day of death of individual animals after administration of tumour cells,[5]; 2 x 5 mg DOX/kg i.v. on days 8 and 12,35 Days and 38 Days and 39 Days and 42 Days and 53 Days (2×)
[raft-poly(HPMA-co-MA-AH-NHN=DOX)]-GFLG-PPO-NH2 [DB-DOX],IC50 after 72 hours of incubation,NB3/DOX,0.919 ± 0.020 µg/mL
same,IC50 after 72 hours of incubation,NB4/DOX,7.07 ± 0.11 µg/mL
same,decrease of the cytostatic effect of doxorubicin by binding the drug to a diblock carrier,[2],2.6 times
same,"first mouse with complete tumour regression, time after drug administration",[6]; 1 x 7.5 mg DOX eq./kg,eighth day
same,median survival,[6]; 1 x 7.5 mg DOX eq./kg i.v.,47.5 days
same,tumour growth in comparison to untreated controls,[6]; 1 x 7.5 mg DOX eq./kg i.v.,tumour growth stagnation within three days and a significant reduction in growth between the third and sixth day after administration of the drug
same,Survival: day of death of individual animals after administration of tumour cells,[6]; 1 x 7.5 mg DOX eq./kg i.v. on day 8,"37 Days and 39 Days and 42 Days (2×) and 60 Days and LTS (LTS (""long term survivor"") means long-term surviving mice without evidence of tumour (at least until day 70 after administration of tumour cells)) (3×)"
same,complete cure (share of subjects),"[6]; 1 x 7.5 mg DOX eq./kg i.v., 8 mice",37.5%
same,mice without apparent tumour at the place of administration,"[6]; 13 days after drug administration, 1 x 7.5 mg DOX eq./kg",4 mice (out of 8)
same,resistance against tumour after retransplantation of cured mice (LTS),"[6]; retransplanted 119 days after the first tumour, no treatment",of these three mice two were resistant
[raft-poly(HPMA-co-MA-AH-NHN=DTX-LEV)]-GFLG-PPO-NH2 [Example 28B],release of drug DTX (or its derivative),[7],released significantly slower
